Reference: patent US20240228446A1, “PREPARATION METHOD FOR BICYCLIC COMPOUND AND APPLICATION AS ANTIFUNGAL AGENT” (priority 2021, published 2024)
In brackets after ≈: the same amount, converted by molar mass.

The compounds below were run on Candida albicans ATCC MYA-2876 (assay: Minimal inhibitory concentration (MIC) test on fungal growth (CLSI M27, yeasts)). Details: Candida albicans, 24 h, read-out: MIC Candida albicans ATCC MYA-2876.
Type: cell-based
Experimental: • RPMI1640 medium: Brand: Gibco, article number: 31800-014 • Sabouraud dextrose agar (SDA): Brand: Hope Bio, article number: HB0253-81 • Voriconazole: Brand: Adamas, article number: 22105A • Amphotericin B: Brand: AbCam, article number: ab141199
MIC test was conducted in accordance with the guidelines and requirements of CLSI M27 (for yeasts) and M38 (for Aspergillus).
Strain preparation: The strains were inoculated 1 day in advance by streaking on SDA plates with glycerol strains stored at −80° C. The strains were cultured at 35° C. and 40 to 60% humidity for 18 to 24 hours. Streak inoculation of Aspergillus fumigatus and Cryptococcus neoformans was required to be done 3 days and 2 days in advance, respectively.
Preparation of culture medium and compounds: The liquid culture medium RPMI was prepared with pure water, and 0.165 mol/L MOPS was added to adjust the pH to 7.0. The mixture was filtered with a 0.22 μm-membrane filter, sterilized, and stored at 4° C. (no more than 3 months). 0.85% physiological saline was sterilized at 121° C. for 30 min and then stored at room temperature (no more than 1 week). The compounds were dissolved in DMSO to 12.8 mg/mL and stored at −20° C.
For yeast, 3 to 5 colonies were selected from the SDA plate on the day of testing and fully suspended in 5 mL of sterilized 0.85% physiological saline. The turbidity of the bacterial suspension was measured with a turbidimeter, and the turbidity was adjusted to approximately 0.2. The bacterial suspension was 50-fold and 20-fold (1000-fold in total) diluted in RPMI1640 medium, respectively, to serve as the inoculum. The final inoculum concentration was 500 to 2500 CFU/mL.
The compound was diluted to the highest 800 μg/mL (or 400 μg/mL) with DMSO, and a 10-step 2-fold gradient dilution was performed, resulting in 11 concentrations. 2 μL of the gradient-diluted compound was transferred to the corresponding wells of a 96-well plate, and then 198 μL of the inoculum was transferred to the test plate. The plate was incubated at 35° C. for 24 hours (Aspergillus fumigatus and Cryptococcus neoformans were incubated for 48 and 72 hours, respectively).
After the incubation, the growth of the fungi was visually observed. The lowest concentration of the compound that inhibited the growth of yeast by 50% (inhibited Aspergillus by 100%) was defined as the minimum inhibitory concentration (MIC, μg/mL). A magnifying glass or reading at OD530 nm could be used to assist in determining the MIC. Photos were taken of the test plates for record keeping.

SMILES | MIC [µg/mL]
OC(Cn1cnnn1)(c1ccc(F)cc1F)C(F)(F)C12CC(c3ccc(OCC(F)(F)F)cn3)(C1)C2 (stereo not shown) [Compound 105] | 0.016 (≈ 0.0309 µM)
OC(Cn1cnnn1)(c1ccc(F)cc1F)C(F)(F)C12CC(c3ccc(Oc4ccccn4)cc3)(C1)C2 (stereo not shown) [Compound 71] | 0.03 (≈ 0.0587 µM)
NC[C@H](O)COc1ccc(C23CC(C(F)(F)C(O)(Cn4cnnn4)c4ccc(F)cc4F)(C2)C3)cc1 (stereo partly shown) [Compound 52] | 1 (≈ 1.97 µM)
OCC(F)(F)CNc1ccc(C23CC(C(F)(F)C(O)(Cn4cnnn4)c4ccc(F)cc4F)(C2)C3)cn1 (stereo not shown) [Compound 104] | 0.03 (≈ 0.0568 µM)

Same assay, conditions: Candida albicans; lowest concentration inhibiting growth of yeast by 50%; 35° C., 24 hours; RPMI1640; read-out: MIC Candida albicans ATCC MYA-2876

SMILES | MIC [µg/mL]
COc1ccc(C23CC(C(F)(F)[C@@](O)(Cn4cnnn4)c4ccc(F)cc4F)(C2)C3)cc1 (stereo in doubt) [Compound 1B] | 0.5 (≈ 1.12 µM)
CN1CC[C@H](Oc2ccc(C34CC(C(F)(F)C(O)(Cn5cnnn5)c5ccc(F)cc5F)(C3)C4)cc2)C1 (stereo partly shown) [Compound 43] | 0.03 (≈ 0.058 µM)
OC1(COc2ccc(C34CC(C(F)(F)C(O)(Cn5cnnn5)c5ccc(F)cc5F)(C3)C4)cc2)CC1 (stereo not shown) [Compound 147] | 0.016 (≈ 0.0317 µM)
O[C@](Cn1cncn1)(c1ccc(F)cc1F)C(F)(F)C12CC(c3ccc(OCC(F)(F)F)cc3)(C1)C2 (stereo in doubt) [Compound 2B] | 0.25 (≈ 0.485 µM)
O[C@@H](COc1ccc(C23CC(C(F)(F)[C@](O)(Cn4cnnn4)c4cc(F)ccc4F)(C2)C3)cc1)C(F)(F)F [Compound 166A] | 0.06 (≈ 0.11 µM)
OC(COc1ccc(C23CC(C(F)(F)C(O)(Cn4cnnn4)c4ccc(F)cc4F)(C2)C3)cc1)C1(O)COC1 (stereo not shown) [Compound 146] | 0.06 (≈ 0.109 µM)
N#Cc1ccc(C23CC(C(F)(F)[C@@](Cn4cncn4)(OCOP(=O)(O)O)c4ccc(F)cc4F)(C2)C3)cc1 [Compound 27A-P2] | 0.5 (≈ 0.905 µM)
C[C@](F)(C12CC(c3ccc(OCC(F)(F)F)cc3)(C1)C2)[C@@](O)(Cn1cnnn1)c1ccc(F)cc1F [Compound 18B] | 2 (≈ 3.9 µM)
OC(Cn1cnnn1)(c1ccc(F)cc1F)C(F)(F)C12CC(c3ccc4c(c3)OCO4)(C1)C2 (stereo not shown) [Compound 33] | 0.06 (≈ 0.13 µM)
OC(COc1ccc(C23CC(C(F)(F)C(O)(Cn4cnnn4)c4ccc(F)cc4F)(C2)C3)cn1)C(F)(F)F (stereo not shown) [Compound 97] | 0.0078 (≈ 0.0142 µM)
CN1CCC(COc2ccc(C34CC(C(F)(F)C(O)(Cn5cnnn5)c5ccc(F)cc5F)(C3)C4)cc2)CC1 (stereo not shown) [Compound 74] | 0.13 (≈ 0.238 µM)
OC(Cn1cnnn1)(c1ccc(F)cc1F)C(F)(F)C12CC(C1)C2 (stereo not shown) [Compound 6] | 0.13 (≈ 0.38 µM)
N#Cc1ccc(C23CC(C(F)(F)[C@@](O)(Cn4cncn4)c4ccc(F)cc4F)(C2)C3)cc1 [Compound 27B] | 0.06 (≈ 0.136 µM)
Oc1ccc(C23CC(C(F)(F)C(O)(Cn4cnnn4)c4ccc(F)cc4F)(C2)C3)cc1 (stereo not shown) [Compound 20] | 0.13 (≈ 0.299 µM)
CCOc1ccc(C23CC(C(F)(F)C(O)(Cn4cnnn4)c4ccc(F)cc4F)(C2)C3)cc1 (stereo not shown) [Compound 87] | 0.016 (≈ 0.0346 µM)
CN1CCN(c2ccc(C34CC(C(F)(F)C(O)(Cn5cnnn5)c5ccc(F)cc5F)(C3)C4)cn2)CC1 (stereo not shown) [Compound 117] | 0.06 (≈ 0.116 µM)
OC(Cn1cnnn1)(c1ccc(F)cc1F)C(F)(F)C12CC(I)(C1)C2 (stereo not shown) [Compound 11] | 0.03 (≈ 0.0641 µM)
OC1(COc2ccc(C34CC(C(F)(F)[C@](O)(Cn5cnnn5)c5ccc(F)cc5F)(C3)C4)cc2)COC1 (stereo in doubt) [Compound 150A] | 0.016 (≈ 0.0307 µM)
N#Cc1ccc(C23CC(C[C@](O)(Cn4cncn4)c4ccc(F)cc4F)(C2)C3)cc1 (stereo in doubt) [Compound 91A] | ≤ 0.0039
N#Cc1ccc(C23CC(C(F)(F)[C@@](O)(Cn4cncn4)c4cc(F)ccc4F)(C2)C3)cc1 [Compound 29B] | 0.125 (≈ 0.283 µM)
CNC(=O)COc1ccc(C23CC(C(F)(F)C(O)(Cn4cnnn4)c4ccc(F)cc4F)(C2)C3)cc1 (stereo not shown) [Compound 34] | 0.016 (≈ 0.0317 µM)
OC(Cn1cnnn1)(c1ccc(F)cc1F)C(F)(F)C12CC(c3ccc(Cl)cc3)(C1)C2 (stereo not shown) [Compound 32] | 0.016 (≈ 0.0353 µM)

SMILES | MIC [µg/mL]
OC12CC(C(F)(F)C(O)(Cn3cncn3)c3ccc(F)cc3F)(C1)C2 (stereo not shown) [Compound 133] | 3 (≈ 8.4 µM)
N#CC1(COc2ccc(C34CC(C(F)(F)C(O)(Cn5cnnn5)c5ccc(F)cc5F)(C3)C4)cc2)CC1 (stereo not shown) [Compound 148] | 0.016 (≈ 0.0312 µM)
COCCOc1ccc(C23CC(C(F)(F)C(O)(Cn4cnnn4)c4ccc(F)cc4F)(C2)C3)cc1 (stereo not shown) [Compound 62] | 0.016 (≈ 0.0325 µM)
N#Cc1ccc(COc2ccc(C#CC34CC(C(F)(F)C(O)(Cn5cnnn5)c5ccc(F)cc5F)(C3)C4)cc2)cc1 (stereo not shown) [Compound 19] | 0.016 (≈ 0.0279 µM)
OC1CC(Oc2ccc(C34CC(C(F)(F)C(O)(Cn5cnnn5)c5ccc(F)cc5F)(C3)C4)cc2)C1 (stereo not shown) [Compound 39] | 0.0078 (≈ 0.0155 µM)
O[C@H](COc1ccc(C23CC(CC(O)(Cn4cnnn4)c4ccc(F)cc4F)(C2)C3)cc1)C(F)(F)F (stereo partly shown) [Compound 89] | 0.016 (≈ 0.0313 µM)
OC(Cn1cnnn1)(c1ccc(F)cc1F)C(F)(F)C12CC(c3ccc(CNCC(F)(F)F)cc3)(C1)C2 (stereo not shown) [Compound 161] | 0.016 (≈ 0.0302 µM)
OC(CNc1ccc(C23CC(C(F)(F)C(O)(Cn4cncn4)c4ccc(F)cc4F)(C2)C3)cn1)C(F)(F)F (stereo not shown) [Compound 100] | 0.0078 (≈ 0.0143 µM)
Oc1ccc(C23CC(C(F)(F)[C@@](O)(Cn4cncn4)c4ccc(F)cc4F)(C2)C3)cc1 [Compound 21B] | 1 (≈ 2.31 µM)
N#Cc1ccc(C23CC(C(F)(F)C(F)(Cn4cncn4)c4ccc(F)cc4F)(C2)C3)cc1 (stereo not shown) [Compound 83] | 0.06 (≈ 0.135 µM)
O[C@H](COc1ccc(C23CC(C(F)(F)[C@](O)(Cn4cnnn4)c4cc(F)ccc4F)(C2)C3)cc1)C(F)(F)F (relative stereo) [Compound 165A] | 0.016 (≈ 0.0293 µM)
N#Cc1ccc(C23CC(C(F)(F)[C@](O)(Cn4cnnn4)c4cc(F)ccc4F)(C2)C3)cc1 [Compound 28A] | 0.25 (≈ 0.564 µM)
CN(C)C[C@H](O)COc1ccc(C23CC(C(F)(F)C(O)(Cn4cnnn4)c4ccc(F)cc4F)(C2)C3)cc1 (stereo partly shown) [Compound 56] | 0.5 (≈ 0.934 µM)
N[C@@](Cn1cnnn1)(c1ccc(F)cc1F)C(F)(F)C12CC(c3ccc(OCC(F)(F)F)cc3)(C1)C2 (stereo in doubt) [Compound 4A] | 0.06 (≈ 0.116 µM)
CC12CC(C(F)(F)C(O)(Cn3cnnn3)c3ccc(F)cc3F)(C1)C2 (stereo not shown) [Compound 14] | 0.03 (≈ 0.0842 µM)
O=C1NC[C@H](COc2ccc(C34CC(C(F)(F)C(O)(Cn5cnnn5)c5ccc(F)cc5F)(C3)C4)cc2)O1 (stereo partly shown) [Compound 59] | 0.13 (≈ 0.244 µM)
O[C@](Cn1cnnn1)(c1ccc(F)cc1F)C(F)(F)C12CC(c3ccc(Cl)cc3)(C1)C2 [Compound 32B] | 0.06 (≈ 0.132 µM)
OC(Cn1cnnn1)(c1ccc(Cl)cc1F)C(F)(F)C12CC(c3ccc(OCC(F)(F)F)cc3)(C1)C2 (stereo not shown) [Compound 7] | 0.016 (≈ 0.03 µM)
OC(Cn1cncn1)(c1ccc(F)cc1F)C(F)(F)C12CC(c3ccc(-n4cncn4)nc3)(C1)C2 (stereo not shown) [Compound 95] | ≤ 0.0039
OC(Cn1cnnn1)(c1ccc(F)cc1F)C(F)(F)C12CC(c3ccc(OCC(F)(F)F)nc3)(C1)C2 (stereo not shown) [Compound 46] | 0.03 (≈ 0.058 µM)
OC(CNc1ccc(C23CC(C(F)(F)C(O)(Cn4cnnn4)c4ccc(F)cc4F)(C2)C3)cn1)C(F)(F)F (stereo not shown) [Compound 99] | 0.016 (≈ 0.0293 µM)
N#Cc1ccc(C23CC(C(F)(F)C(O)(Cn4cnnn4)c4ccc(F)cc4F)(C2)C3)cc1 (stereo not shown) [Compound 8] | 0.5 (≈ 1.13 µM)

Same assay, conditions: lowest concentration inhibiting growth of yeast by 50%; 35° C., 24 hours; RPMI1640

SMILES | MIC Candida albicans ATCC MYA-2876 [µg/mL]
O[C@@](Cn1cnnn1)(c1ccc(F)cc1F)C(F)(F)C12CC(C1)C2 [Compound 6A] | 0.06 (≈ 0.175 µM)
O[C@@](Cn1cnnn1)(c1ccc(F)cc1F)C(F)(F)C12CC(c3ccc(Cl)cc3)(C1)C2 [Compound 32A] | ≤0.0039
OC(Cn1cnnn1)(c1ccc(F)cc1F)C(F)(F)C12CC(C3=CCN(CC(F)(F)F)CC3)(C1)C2 (stereo not shown) [Compound 118] | 0.0078 (≈ 0.0154 µM)
CC12CC(C(F)(F)[C@](O)(Cn3cnnn3)c3ccc(F)cc3F)(C1)C2 [Compound 14A] | 0.016 (≈ 0.0449 µM)
